Measured values published in patent publication US20250206730A1 (AUTOTELIC BIO INC., priority 2022, published 2025).

How the values were obtained:
[1] = target: T1, ALK5 kinase (Homo sapiens, UniProt P36897); experiment: LanthaScreen Eu Kinase Binding Assay; settings: Kinase Tracer 178, Eu-anti-GST Antibody, read-out: IC50 Enzyme
T1 sequence (P36897 34-503): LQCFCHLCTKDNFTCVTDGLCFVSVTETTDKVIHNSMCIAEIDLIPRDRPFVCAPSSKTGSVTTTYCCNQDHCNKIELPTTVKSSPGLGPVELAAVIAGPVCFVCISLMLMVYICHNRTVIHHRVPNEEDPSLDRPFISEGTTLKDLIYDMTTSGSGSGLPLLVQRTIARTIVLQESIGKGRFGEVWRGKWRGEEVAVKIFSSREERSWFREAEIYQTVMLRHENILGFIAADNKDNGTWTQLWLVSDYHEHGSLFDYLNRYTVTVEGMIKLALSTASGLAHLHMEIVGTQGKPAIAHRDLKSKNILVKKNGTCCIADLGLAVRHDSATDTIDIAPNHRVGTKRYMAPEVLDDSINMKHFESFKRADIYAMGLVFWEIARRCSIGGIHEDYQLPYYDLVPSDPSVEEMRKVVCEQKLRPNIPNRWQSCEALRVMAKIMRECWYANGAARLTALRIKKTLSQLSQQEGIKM
Method: [Example 1] LanthaScreen Eu Kinase Binding Assay
4 μL of 4× Test Compound in 4% DMSO and 4 μL of 4× Kinase in Kinase buffer were added to wells (low volume, white 384-well plate (Greiner Cat. #784207)). The plate was shaken for 30 seconds, centrifuged for 10 seconds at 1000 rpm, and incubated at RT for 30 minutes. Then, 4 μL of 4× Eu-anti-GST Antibody and 4 μL of 4× Kinase Tracer 178 were added to the wells. The plate was shaken for 30 seconds, centrifuged for 10 seconds at 1000 rpm, and incubated at RT for 60 minutes. Fluorescence was measured by a plate reader, Biotek Synergy H1 (Vermont, USA) under the following conditions. • Excitation: 340 nm (3 nm bandpass) • Kinase tracer emission: 665 nm (10 nm bandpass) • Eu Ab emission: 615 nm (10 nm bandpass) • Emission ratio=665 nm (tracer)/615 nm (Eu Ab) • The higher the binding affinity of compound to ALK5 kinase is, the less the emission ratio is.

[2] = tested on: TGF-β signaling; experiment: Assay for evaluating cellular inhibition of TGF-β signaling, 4T1 (SBE-luc2P) luciferase reporter; type: cell-based; settings: Mus musculus, 4T1, 4T1 (SBE-luc2P) transient pool, 0.2% FBS, 2 h pre-treatment, TGF-β1 2 ng/mL 24 h; read-out: IC50 4T1 Cell
Method in brief: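 Luminescence from SMAD-binding-element luciferase was measured after 24 h of 2 ng/mL TGF-β1 at 37 °C, following 2 h compound pre-treatment. HEK293 stable reporter cells were used at 2.5×10^4/well in 0.5% FBS (~80% confluent); the 4T1 SBE-luc2P transient pool at 6×10^3/well in 0.2% FBS (~60% confluent).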

With `Cc1nc(-c2ccccc2)c(Oc2ccnc(Nc3ccnc(C(C)(C)O)c3)c2)s1` [A-59, 2-(4-((4-((2-Methyl-4-phenylthiazol-5-yl)oxy)pyridin-2-yl)amino)pyridin-2-yl)propan-2-ol] the IC50 [1] was < 100 nM and the IC50 [2] was > 100 nM.

`Cc1nc(-c2ccccc2)c(Oc2ccnc(Nc3cccc(C(N)=O)c3)c2)s1` [A-60, 3-((4-((2-Methyl-4-phenylthiazol-5-yl)oxy)pyridin-2-yl)amino)benzamide] was tested, and the IC50 [1] was < 100 nM and the IC50 [2] was < 100 nM.

For `Cc1nc(-c2ccccc2)c(Oc2ccnc(Nc3cccc(C(C)(C)O)c3)c2)s1` [A-61, 2-(3-((4-((2-Methyl-4-phenylthiazol-5-yl)oxy)pyridin-2-yl)amino)phenyl)propan-2-ol], the IC50 [1] was < 100 nM and the IC50 [2] was < 100 nM.

With `Cc1nc(-c2ccccc2)c(Oc2ccnc(Nc3ccc(C(N)=O)cc3)c2)s1` [A-63] the IC50 [1] was < 100 nM and the IC50 [2] was > 100 nM.

`Cc1nc(-c2ccccc2)c(Oc2ccnc(Nc3ccc(S(N)(=O)=O)cc3)c2)s1` [A-64, 4-((4-((2-Methyl-4-phenylthiazol-5-yl)oxy)pyridin-2-yl)amino)benzenesulfonamide] was tested, and the IC50 [1] was < 100 nM and the IC50 [2] was > 100 nM.

For `Cc1nc(-c2ccccc2)c(Oc2ccnc(Nc3ccc(C(C)(C)O)nc3)c2)s1` [A-65, 2-(5-((4-((2-Methyl-4-phenylthiazol-5-yl)oxy)pyridin-2-yl)amino)pyridin-2-yl)propan-2-ol], the IC50 [1] was < 100 nM and the IC50 [2] was > 100 nM.

`Cc1nc(-c2ccccc2)c(Oc2ccnc(Nc3cccc(C(C)(C)C(=O)O)c3)c2)s1` [A-66, 2-Methyl-2-(3-((4-((2-methyl-4-phenylthiazol-5-yl)oxy)pyridin-2-yl)amino)phenyl)propanoic acid] was tested, and the IC50 [1] was < 100 nM and the IC50 [2] was < 100 nM.

In the case of `Cc1nc(-c2ccccc2)c(Oc2ccnc(Nc3cccc(S(=O)(=O)O)c3)c2)s1` [A-68, 3-((4-((2-Methyl-4-phenylthiazol-5-yl)oxy)pyridin-2-yl)amino)benzenesulfonic acid], the IC50 [1] is reported as < 100 nM and the IC50 [2] is reported as > 100 nM.

`CNC(=O)c1cccc(Nc2cc(Oc3sc(C)nc3-c3ccccc3)ccn2)c1` [A-69, N-Methyl-3-((4-((2-methyl-4-phenylthiazol-5-yl)oxy)pyridin-2-yl)amino)benzamide] was tested, and the IC50 [1] was < 100 nM and the IC50 [2] was < 100 nM.

`Cc1nc(-c2ccccc2)c(Oc2ccnc(Nc3cccc(S(C)(=O)=O)c3)c2)s1` [A-70, 4-((2-Methyl-4-phenylthiazol-5-yl)oxy)-N-(3-(methylsulfonyl)phenyl)pyridin-2-amine] was tested, and the IC50 [1] was < 100 nM and the IC50 [2] was < 100 nM.

`Cc1nc(-c2ccccc2)c(Oc2ccnc(Nc3cccc(NS(C)(=O)=O)c3)c2)s1` [A-71, N-(3-((4-((2-Methyl-4-phenylthiazol-5-yl)oxy)pyridin-2-yl)amino)phenyl)methanesulfonamide] was tested, and the IC50 [1] was < 100 nM and the IC50 [2] was < 100 nM.

`Cc1nc(-c2ccccc2)c(Oc2ccnc(Nc3cccc(S(=O)(=O)C(F)(F)F)c3)c2)s1` [A-72, 4-((2-Methyl-4-phenylthiazol-5-yl)oxy)-N-(3-((trifluoromethyl)sulfonyl)phenyl)pyridin-2-amine] was tested, and the IC50 [1] was > 100 nM and the IC50 [2] was > 100 nM.

With `Cc1nc(-c2ccccc2)c(Oc2ccnc(Nc3ccc(C(N)=O)nc3)c2)s1` [A-91, 5-((4-((2-Methyl-4-phenylthiazol-5-yl)oxy)pyridin-2-yl)amino)picolinamide] the IC50 [1] was < 100 nM and the IC50 [2] was > 100 nM.

`Cc1nc(-c2ccccc2)c(Oc2ccnc(Nc3cncc(C(N)=O)c3)c2)s1` [A-92, 5-((4-((2-Methyl-4-phenylthiazol-5-yl)oxy)pyridin-2-yl)amino)nicotinamide] was tested, and the IC50 [1] was < 100 nM and the IC50 [2] was < 100 nM.

In the case of `Cc1nc(-c2ccccc2)c(Oc2ccnc(Nc3cc(C(N)=O)ccn3)c2)s1` [A-93, 2-((4-((2-Methyl-4-phenylthiazol-5-yl)oxy)pyridin-2-yl)amino)isonicotinamide], the IC50 [1] is reported as < 100 nM and the IC50 [2] is reported as < 100 nM.

In the case of `Cc1nc(-c2ccccc2)c(Oc2ccnc(Nc3ccc(N4CCNCC4)cc3)c2)s1` [A-104, 4-((2-Methyl-4-phenylthiazol-5-yl)oxy)-N-(4-(piperazin-1-yl)phenyl)pyridin-2-amine], the IC50 [1] is reported as < 100 nM and the IC50 [2] is reported as < 100 nM.

`Cc1nc(-c2ccccc2)c(Oc2ccnc(Nc3ccc(OCCN4CCCCC4)cc3)c2)s1` [A-105, 4-((2-Methyl-4-phenylthiazol-5-yl)oxy)-N-(4-(2-(piperidin-1-yl)ethoxy)phenyl)pyridin-2-amine] was tested, and the IC50 [1] was < 100 nM and the IC50 [2] was < 100 nM.

For `Cc1nc(-c2ccccc2)c(Oc2ccnc(Nc3cccc(NS(=O)(=O)C(F)(F)F)c3)c2)s1` [A-107, 1,1,1-Trifluoro-N-(3-((4-((2-methyl-4-phenylthiazol-5-yl)oxy)pyridin-2-yl)amino)phenyl)methanesulfonamide], the IC50 [1] was < 100 nM and the IC50 [2] was < 100 nM.

For `Cc1nc(-c2ccccc2)c(Oc2ccnc(Nc3cccc(C(=O)O)c3)c2)s1` [A-109, 3-((4-((2-Methyl-4-phenylthiazol-5-yl)oxy)pyridin-2-yl)amino)benzoic acid], the IC50 [1] was < 100 nM and the IC50 [2] was > 100 nM.

For `Cc1nc(-c2ccccc2)c(Oc2ccnc(Nc3ccc(C(=O)O)cc3)c2)s1` [A-110, 4-((4-((2-Methyl-4-phenylthiazol-5-yl)oxy)pyridin-2-yl)amino)benzoic acid], the IC50 [1] was < 100 nM and the IC50 [2] was > 100 nM.

With `Cc1nc(-c2ccccc2)c(Oc2ccnc(Nc3cccc(CC#N)c3)c2)s1` [A-111, 2-(3-((4-((2-Methyl-4-phenylthiazol-5-yl)oxy)pyridin-2-yl)amino)phenyl)acetonitrile] the IC50 [1] was < 100 nM and the IC50 [2] was < 100 nM.

In the case of `Cc1nc(-c2ccccc2)c(Oc2ccnc(Nc3cccc(Cc4nnn[nH]4)c3)c2)s1` [A-112, N-(3-((1H-Tetrazol-5-yl)methyl)phenyl)-4-((2-methyl-4-phenylthiazol-5-yl)oxy)pyridin-2-amine], the IC50 [1] is reported as < 100 nM and the IC50 [2] is reported as < 100 nM.

`Cc1nc(-c2ccccc2)c(Oc2ccnc(Nc3cccc(CCC#N)c3)c2)s1` [A-113, 3-(3-((4-((2-Methyl-4-phenylthiazol-5-yl)oxy)pyridin-2-yl)amino)phenyl)propanenitrile] was tested, and the IC50 [1] was < 100 nM and the IC50 [2] was < 100 nM.

`Cc1nc(-c2ccccc2)c(Oc2ccnc(Nc3cccc(CCc4nn[nH]n4)c3)c2)s1` [A-114, N-(3-(2-(2H-Tetrazol-5-yl)ethyl)phenyl)-4-((2-methyl-4-phenylthiazol-5-yl)oxy)pyridin-2-amine] was tested, and the IC50 [1] was < 100 nM and the IC50 [2] was < 100 nM.

`CC(C)(O)c1cccc(Nc2cc(Oc3sc(C4CC4)nc3-c3ccccc3)ccn2)c1` [A-115, 2-(3-((4-((2-Cyclopropyl-4-phenylthiazol-5-yl)oxy)pyridin-2-yl)amino)phenyl)propan-2-ol] was tested, and the IC50 [1] was < 100 nM and the IC50 [2] was > 100 nM.

In the case of `NS(=O)(=O)c1cccc(Nc2cc(Oc3sc(C4CC4)nc3-c3ccccc3)ccn2)c1` [A-116, 3-((4-((2-Cyclopropyl-4-phenylthiazol-5-yl)oxy)pyridin-2-yl)amino)benzenesulfonamide], the IC50 [1] is reported as < 100 nM and the IC50 [2] is reported as < 100 nM.

For `NC(=O)c1cccc(Nc2cc(Oc3sc(C4CC4)nc3-c3ccccc3)ccn2)c1` [A-117, 3-((4-((2-Cyclopropyl-4-phenylthiazol-5-yl)oxy)pyridin-2-yl)amino)benzamide], the IC50 [1] was < 100 nM and the IC50 [2] was < 100 nM.

`NS(=O)(=O)c1ccc(Nc2cc(Oc3sc(C4CC4)nc3-c3ccccc3)ccn2)cc1` [A-118, 4-((4-((2-Cyclopropyl-4-phenylthiazol-5-yl)oxy)pyridin-2-yl)amino)benzenesulfonamide] was tested, and the IC50 [1] was < 100 nM and the IC50 [2] was > 100 nM.

With `NC(=O)c1ccc(Nc2cc(Oc3sc(C4CC4)nc3-c3ccccc3)ccn2)cc1` [A-119, 4-((4-((2-Cyclopropyl-4-phenylthiazol-5-yl)oxy)pyridin-2-yl)amino)benzamide] the IC50 [1] was < 100 nM and the IC50 [2] was < 100 nM.

`CC(C)(O)c1cc(Nc2cc(Oc3sc(C4CC4)nc3-c3ccccc3)ccn2)ccn1` [A-120, 2-(4-((4-((2-Cyclopropyl-4-phenylthiazol-5-yl)oxy)pyridin-2-yl)amino)pyridin-2-yl)propan-2-ol] was tested, and the IC50 [1] was < 100 nM and the IC50 [2] was > 100 nM.

In the case of `CC(C)(O)c1ccc(Nc2cc(Oc3sc(C4CC4)nc3-c3ccccc3)ccn2)cn1` [A-121, 2-(5-((4-((2-Cyclopropyl-4-phenylthiazol-5-yl)oxy)pyridin-2-yl)amino)pyridin-2-yl)propan-2-ol], the IC50 [1] is reported as < 100 nM and the IC50 [2] is reported as > 100 nM.
